Source: patent US20140172118A1, “Bioactive Compositions, Bioactive Eluting Devices and Methods of Use Thereof” (Cook Medical Technologies LLC, priority 2012, published 2014)

Assay: Ex-vivo delivery of doxazosin mesylate from coated polyurethane tubing to ureter tissue
Format: in vitro ADME
Details: 7 cm coated 6 Fr. polyurethane tubing in 9 cm porcine ureter, approximately 18 hours at 37° C., PBS pH=7.4; HPLC; compared with coating with no triacetin or DMSO; FIG. 6
Experimental: However, the increase in the amount bioactive delivered through a vessel wall may be characterized in an ex vivo assay in which the composition or implantable device is placed in a section of the appropriate vessel and incubated in a buffer solution for a fixed time. In one such assay, a device, for example, is placed in a section of porcine ureter, which is hydrated in a Phosphate Buffered Saline buffer. The ureter is incubated in a closed container for a fixed time, for example 24 hrs at 37 deg. C. […] The amount of bioactive present in the ureter and in the device is determined using, for example, an appropriate HPLC method. […]
A 7 cm section of each of the samples of tubing prepared as described in Example 1 is inserted into 9 cm of porcine ureter and incubated for approximately 18 hours at 37° C. in a screw capped glass vial hydrated with 0.25 ml of PBS (pH=7.4). […] The amount of doxazosin mesylate present in the tubing and in the ureter is determined as described in example 3.
Each of the samples from Example 2 is tested to determine the amount of doxazosin mesylate delivered to the ureter tissue. Doxazosin mesylate is extracted from each tube and ureter and the percentage that is delivered to each ureter is determined as follows. […] The amount of doxazosin mesylate in each of the ureter and the tubing is measured using HPLC.

For C[S+](C)[O-] [DMSO, dimethyl sulfoxide], the “percentage of doxazosin mesylate present in the ureter (amount delivered to ureter tissue)” value was “increase the amount of doxazosin mesylate delivered”.

For CC(=O)OCC(COC(C)=O)OC(C)=O [triacetin], the “percentage of doxazosin mesylate present in the ureter (amount delivered to ureter tissue)” value was “increase the amount of doxazosin mesylate delivered”.
